The source of these data is patent EP0256472A2, “Cosmetic agent for application to skin” (priority 1986, dated 1988).

Series [1] in a line: Half face use test of cosmetic agents on women: elasticity, complexion, roughness, wrinkling of the skin. The format is in vivo, human. Conditions: Example 9: toilet water as in Example 7 with this compound in place of N²,O^2ʹ-DBcGMP Na. From the text:
Two groups each of which comprised 20 statistically-equivalent women (30 to 50 years old) were selected and the toilet water samples I and II were applied separately to the right and left face portions, respectively, of each woman in one group and the toilet water samples I and III were respectively applied to same portions of each woman in the other group by a half face method twice a day (in the morning and at night) for 3 months. The degree of improvement in terms of elasticity, complexion, roughness, and wrinkling of the skin were then examined. […]
The effectiveness of thus-prepared toilet waters was actually measured by the same method as set forth in Example 1.
The toilet water samples of the present invention and of the comparison were applied separately to the right and left face portions, respectively, of each woman in a group comprising 20 women (30 to 50 years old) by a half face method twice a day (in the morning and at night) for 3 months. The degree of improvement in terms of elasticity, complexion, roughness, and wrinkles of the skin was then examined. […]

A short description of series [2]: Colour tone of the skin of colored guinea pigs, color-difference meter (Example 10). The format is in vivo, guinea pig. Conditions: cream with 0.5% of active principle, twice a day for 14 days; larger value = whiter skin. As to the method:
After hair had been removed from the back of each colored guinea pig (3 guinea pigs in a group), a cream with which 0.5% of an active principle was mixed (cGMP or its derivatives in place of FAD 2Na used in Example 2) and a cream containing no active principle were respectively applied to the back of each guinea pig twice a day (in the morning and at night) every day for 14 days. The difference in colour tone of the skin before and after the application was measured by a color-difference meter.
The numerical values shown in the table are L-values (lightness) and a larger value indicates a whiter skin.

Series [3] can be described thus: Lightness of discolored spot or freckled portion of human skin, color-difference meter (Example 11). The format is in vivo. As to conditions: Example 12: cream as in Example 11 with this compound instead of N²,O^2ʹ-DBcGMP Na and cGMP Na. As for the experimental part:
Creams having the compositions shown in Table 23 were prepared and then applied to a discolored spot or freckled portion of the skin of each of 6 men and women in the morning and at night twice a day for 3 months. The lightness of the discolored spot portions was measured by a color-difference meter before and after the application.
The numerical values obtained before and after the application shown in the table are L-values (lightness).

Series [4] relates to Fibroblasts originating in the human skin. Put plainly: Promotion of growth of dermal fibroblasts (Test Example 1). The format is cell-based. As to conditions: 10⁻⁵ M, 1% serum, 14 days; words of the text only, Table 2 is an image. As for the experimental part:
The action of promoting the growth of dermal fibroblasts by the coenzymes and nucleic acid related substances used in the present invention was evaluated in accordance with the following method:
Fibroblasts originating in the human skin were cultured in media to which the above-described compounds had been added and to which no such compound was added under serum controlled conditions and the effect of the compounds on proliferation was examined. That is, the above-described fibroblasts were cultured in a Co₂-incubator at 37°C for 24 hours in Eagle's MEM medium (pH 7.6) to which were added 10% of fetal bovine serum and the like. The medium was then changed to a medium in which the serum was lowered 1% and in which the fibroblasts were then cultured for 24 hours. The medium was then changed into a medium containing 10⁻⁵ M of a substance for examination and 1% of serum in which the culture was continued.
The medium was then changed on alternate days. The results obtained are shown in Table 2 in which the number of cells for each case is shown by a relative value obtained by assuming the number of cells after 14 days to be 100 in the case of the control in which no substance for examination was added.

The test system of series [5] is collagen. As to the kind of experiment: Promotion of collagen production in skin-excised rats: weight of granulation and hydroxyproline (Test Example 2). The format is in vivo, Wistar 6-week old male rats. As to conditions: for increases in the weights of regenerated granulation and the amounts of hydroxyproline (in words): summary of Table 3. As to the method:
The action of promoting the production of collagen by the coenzymes and the nucleic acid related substances used in the present invention was evaluated in accordance with the following method:
Each rat was killed on the seventh day, and then the circular portion was cut out and the weight of granulation (derma) and the amount of hydroxyproline, which is a specific amino acid constituting collagen, were measured as an index of the amount of reproduced collagen.

Series [6] concerns collagen elastin fibril. As to the kind of experiment: Tensile strength of healed linear skin cut in rats (Test Example 3). The format is in vivo, Wistar 6-week old male rats. As to conditions: for increases in the tensile strength of collagen elastin fibril (in words): summary of Table 4. As for the experimental part: The effect of the coenzymes and the nucleic acid related substances against the strength of collagen elastin fibril was conducted as follows:
After hair had been removed from the back of each rat in a group comprising eight Wistar 6-week old male rats, the back of the rat was cut along the median line of the back by a scalpel to make a linear cut portion having a length of 4 cm, and the cut portion was sewed up at 3 positions at equally spaced intervals by Michel's clips. The Michel's clips were removed 3 days after the sewing. 0.1 ml of each of physiological saline containing 50 mM of the above described compound or a physiological saline containing no compound (control) was repeatedly applied to the cut portion once a day for 7 days. Each rat was killed on the eighth day, and the skin of the cut portion was cut out to prepare three samples per rat, each sample being a strip of skin having a width of 1 cm crossing the cutting line.
The tensile strength of the sample up to breakage point was measured by a tensiometer to determine the strength of reproduced collagen elastin fibril. In the Table, values of the strength are shown as relative values obtained on the assumption that those of the control were 100.
In the above test, a relative value of the strength of more than 110 is considered to show an increase in the tensile strength.

A short description of series [7]: Safety tests in the same way as in Example 1 (acute toxicity, skin irritation, skin sensitization). The format is in vivo. The text has this: The above-described coenzymes and nucleic acid related substances used in the present invention are widely present in organisms and are thus thought to be extremely safe.
Series [8] is described as follows: Acute oral toxicity. The format is in vivo. As to conditions: rat.
For series [9] the following is noted: guinea pig, in vivo.
The conditions of series [10]: guinea pig, in vivo. The source holds these as a separate data set.
For series [11] the following is noted: rabbit, in vivo.
For series [12] the following is noted: guinea pig, in vivo. The source holds these as a separate data set.
The conditions of series [13]: guinea pig, in vivo. This is another data set of the same source.
For series [14] the following is noted: in vivo.
Where [15] appears, read: tested in the same way as in Example 1.
The mark [16] stands for this setting: relative value, control = 100, 0.1 ml of 50 mM in 10% ethanol twice a day for 6 days, seventh day.

As for `Nc1nc2c(nc(Br)n2[C@@H]2O[C@@H]3COP(=O)(O)O[C@H]3[C@H]2O)c(=O)[nH]1` [8-BrcGMP Na], the “effect of preventing the aging of the skin” value (from here on “effect”) in series [1] was “excellent effects similar to those of Example 7”. The “L-values (lightness) After application” value in [2] was determined as 45.4. In addition, the “properties of the creams (lightness of discolored spots)” value (from here on “properties of the creams”) in [3] is given as “results similar to those in Example 11”.
For the compound `O=C(O)CCC(=O)Nc1nc2c(ncn2[C@@H]2O[C@@H]3COP(=O)(O)O[C@H]3[C@H]2O)c(=O)[nH]1` [N^2-MScGMP Na], in [2], the “L-values (lightness) After application” value was determined as 44.6.
As to `O=C(O)CCC(=O)Nc1nc2c(ncn2[C@@H]2O[C@@H]3COP(=O)(O)O[C@H]3[C@H]2OC(=O)CCC(=O)O)c(=O)[nH]1` [N^2,O^2'-DScGMP Na], in [1], the “effect” value is “excellent effects similar to those of Example 7”. For the same compound, the “L-values (lightness) After application” value in series [2] was determined as 45.3.
Turning to `CC(C)(COP(=O)(O)OP(=O)(O)OC[C@H]1O[C@@H](n2cnc3c(N)ncnc32)[C@H](O)[C@@H]1OP(=O)(O)O)[C@@H](O)C(=O)NCCC(=O)NCCS` [CoA 3Na, coenzyme A], the “growth promotion functions for human fibroblasts” value in series [4] is listed as “particularly excellent effects”. Besides, in series [5], the “increases in the weights of regenerated granulation and the amounts of hydroxyproline (in words)” value is recorded as “particularly excellent effects”. Further, the “increases in the tensile strength of collagen elastin fibril (in words)” value in series [6] is on record as “particularly excellent effect”. In addition, the “safety with respect to skin irritation, etc.” value (“safety” for short) in series [7] (in vivo) is on record as “no problem was observed”.
In the case of `CCCC(=O)OC1C2OP(=O)(O)OCC2OC1n1cnc2c(=O)[nH]c(N)nc21` (stereo not drawn) [O^2'-MBcGMP Na], the “effect” value in [1] was “excellent effects similar to those of Example 7”. In addition, the “L-values (lightness) After application” value in series [2] turned out to be 43.7. For the same compound, in [3], the “properties of the creams” value is on record as “results similar to those in Example 11”.
Turning to `Nc1nc2c(ncn2[C@@H]2O[C@@H]3COP(=O)(O)O[C@H]3[C@H]2O)c(=O)[nH]1` [cGMP Na, guanosine 3ʹ,5ʹ-cyclic monophosphate], in [7] (setting [15]), the “safety” value is on record as “no problem”. For the same compound, the “L-values (lightness) After application” value in [2] is 43.0.
As for `Nc1nc2c(ncn2[C@@H]2O[C@@H]3COP(=O)(O)O[C@H]3[C@H]2OC(=O)CCC(=O)O)c(=O)[nH]1` [O^2'-MScGMP Na], the “L-values (lightness) After application” value in [2] was found to be 43.8.
Take `NC(=O)c1ccc[n+]([C@@H]2O[C@H](COP(=O)([O-])OP(=O)(O)OC[C@H]3O[C@@H](n4cnc5c(N)ncnc54)[C@H](O)[C@@H]3O)[C@@H](O)[C@H]2O)c1` [NAD Na, β-nicotinamide adenine dinucleotide]: the “safety” value in [7] (setting [15]) is “no problem was observed”.
`CCCC(=O)Nc1nc2c(ncn2[C@@H]2O[C@@H]3COP(=O)(O)O[C@H]3[C@H]2O)c(=O)[nH]1` [N^2-MBcGMP Na]: the “effect” value in series [1] is given as “excellent effects similar to those of Example 7”. The “L-values (lightness) After application” value in series [2] is given as 44.6. Also, the “properties of the creams” value in [3] is recorded as “results similar to those in Example 11”.
On to `Cc1cc2nc3c(=O)[nH]c(=O)nc-3n(C[C@H](O)[C@H](O)[C@H](O)COP(=O)(O)OP(=O)(O)OC[C@H]3O[C@@H](n4cnc5c(N)ncnc54)[C@H](O)[C@@H]3O)c2cc1C` [FAD 2Na, Flavin adenine dinucleotide], for which the “safety” value in series [7] (setting [15]) is on record as “no problem was observed”.
For 5ʹ-deoxyadenosylcobalamine [CoB12], the “growth promotion functions for human fibroblasts” value in [4] is listed as “particularly excellent effects”. In series [5] (setting [16]), this compound yielded an Amount of hydroxyproline of 167 and a Weight of granulation of 181. Moreover, the “increases in the weights of regenerated granulation and the amounts of hydroxyproline (in words)” value in [5] is given as “particularly excellent effects”. Besides, the Tensile strength in series [6] (relative value, control = 100, more than 110 is considered an increase, 0.1 ml of 50 mM in physiological saline once a day for 7 days, eighth day) stood at 122. Also, the “increases in the tensile strength of collagen elastin fibril (in words)” value in series [6] was “particularly excellent effect”. In addition, the LD50 value result in series [8] is recorded as “LD50 value; 5 g/kg or more”. For the same compound, the Primary skin irritation in series [9] is on record as 5%; non-irritant. In addition, the Phototoxicity result in [10] is “negative”. The Ocular-mucous membrane irritation in [11] is reported as 5%, non-irritant. In [12], the Skin sensitization entry was “negative”. Moreover, the Photosensitization entry in [13] is listed as “negative”. In addition, the Human patch test in [14] is listed as 5%; non-irritant.
Consider `Nc1nc2c(nc(Sc3ccc(Cl)cc3)n2[C@@H]2O[C@@H]3COP(=O)(O)O[C@H]3[C@H]2O)c(=O)[nH]1` [8-ClPhScGMP Na], for which, in series [2], the “L-values (lightness) After application” value worked out at 45.3.
In the case of `O=C(O)c1cc(C(=O)O)c2c(n1)C(=O)C(=O)c1cc(C(=O)O)[nH]c1-2` [PQQ 2Na, Pyrrolo-quinoline quinone], the “safety” value in [7] (in vivo) is given as “no problem was observed”.
Take `CCCC(=O)Nc1nc2c(ncn2[C@@H]2O[C@@H]3COP(=O)(O)O[C@H]3[C@H]2OC(=O)CCC)c(=O)[nH]1` [N^2,O^2'-DBcGMP Na]: the “safety” value in series [7] (setting [15]) was “problems such as skin irritating property were not found”. The “L-values (lightness) After application” value in [2] is reported as 45.5.
For `NC(=O)c1ccc[n+]([C@@H]2O[C@H](COP(=O)([O-])OP(=O)(O)OC[C@H]3O[C@@H](n4cnc5c(N)ncnc54)[C@H](OP(=O)(O)O)[C@@H]3O)[C@@H](O)[C@H]2O)c1` [NADP Na, β-nicotinamide adenine dinucleotide phosphate], the “safety” value in [7] (setting [15]) is given as “no problem was observed”.
